# Literature values as cited in article PMC9516332 (Frontiers in Oncology, 2022).
# Like-named read-outs stand apart in the source and are kept apart here.
# Key:
# Settings in all cases: cited from earlier work
# [1] = molecular target: T1, panel of 255 wild-type kinases (Homo sapiens, UniProt Q13470)
# T1 sequence (Q13470 1-666): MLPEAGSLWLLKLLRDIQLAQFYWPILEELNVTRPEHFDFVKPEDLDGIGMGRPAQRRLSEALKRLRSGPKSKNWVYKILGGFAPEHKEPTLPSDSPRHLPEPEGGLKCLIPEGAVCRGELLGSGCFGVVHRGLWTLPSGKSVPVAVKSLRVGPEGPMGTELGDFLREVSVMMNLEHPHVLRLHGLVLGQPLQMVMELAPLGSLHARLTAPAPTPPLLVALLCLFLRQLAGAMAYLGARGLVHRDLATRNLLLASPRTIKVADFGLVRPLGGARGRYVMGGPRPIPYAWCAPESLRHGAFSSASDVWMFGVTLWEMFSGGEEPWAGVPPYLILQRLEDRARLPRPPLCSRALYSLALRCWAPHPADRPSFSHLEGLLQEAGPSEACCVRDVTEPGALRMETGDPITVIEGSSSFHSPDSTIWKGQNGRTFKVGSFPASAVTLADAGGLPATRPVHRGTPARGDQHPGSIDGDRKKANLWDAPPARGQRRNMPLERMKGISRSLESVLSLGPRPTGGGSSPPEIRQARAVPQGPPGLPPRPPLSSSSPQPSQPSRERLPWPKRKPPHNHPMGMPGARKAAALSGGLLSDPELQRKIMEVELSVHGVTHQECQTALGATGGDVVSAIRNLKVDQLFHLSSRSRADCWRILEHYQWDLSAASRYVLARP
# [2] = molecular target: panel of 255 wild-type kinases (Homo sapiens, UniProt P48730)
# [3] = molecular target: panel of 255 wild-type kinases (Homo sapiens, UniProt Q9UKE5)
# [4] = molecular target: T2, panel of 255 wild-type kinases (Homo sapiens, UniProt Q9BXA7)
# T2 sequence (Q9BXA7 1-367): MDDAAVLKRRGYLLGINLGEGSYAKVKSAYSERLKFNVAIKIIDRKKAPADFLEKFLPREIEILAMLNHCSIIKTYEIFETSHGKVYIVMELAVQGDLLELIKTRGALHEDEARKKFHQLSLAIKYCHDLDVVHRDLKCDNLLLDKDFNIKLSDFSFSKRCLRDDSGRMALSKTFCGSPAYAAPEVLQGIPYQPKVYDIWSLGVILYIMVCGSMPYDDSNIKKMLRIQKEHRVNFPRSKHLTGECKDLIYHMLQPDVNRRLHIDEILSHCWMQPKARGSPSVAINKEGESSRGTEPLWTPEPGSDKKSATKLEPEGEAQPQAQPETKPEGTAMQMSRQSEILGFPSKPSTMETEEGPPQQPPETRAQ
# [5] = molecular target: T3, panel of 255 wild-type kinases (Homo sapiens, UniProt Q96BR1)
# T3 sequence (Q96BR1 1-496): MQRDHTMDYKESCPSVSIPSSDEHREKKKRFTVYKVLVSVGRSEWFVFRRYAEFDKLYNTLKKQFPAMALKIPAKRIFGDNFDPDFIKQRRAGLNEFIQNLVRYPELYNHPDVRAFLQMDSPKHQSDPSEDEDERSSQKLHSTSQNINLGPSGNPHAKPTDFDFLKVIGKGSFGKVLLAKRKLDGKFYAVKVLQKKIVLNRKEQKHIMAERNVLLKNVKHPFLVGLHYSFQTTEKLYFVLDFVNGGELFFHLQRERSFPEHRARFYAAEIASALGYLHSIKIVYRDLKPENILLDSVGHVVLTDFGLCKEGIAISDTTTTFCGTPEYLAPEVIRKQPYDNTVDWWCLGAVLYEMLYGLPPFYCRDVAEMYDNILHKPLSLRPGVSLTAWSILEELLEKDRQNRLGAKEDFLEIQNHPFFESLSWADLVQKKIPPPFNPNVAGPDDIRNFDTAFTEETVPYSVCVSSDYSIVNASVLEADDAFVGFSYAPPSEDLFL
# [6] = molecular target: T4, panel of 255 wild-type kinases (Homo sapiens, UniProt Q16832)
# T4 sequence (Q16832 22-855): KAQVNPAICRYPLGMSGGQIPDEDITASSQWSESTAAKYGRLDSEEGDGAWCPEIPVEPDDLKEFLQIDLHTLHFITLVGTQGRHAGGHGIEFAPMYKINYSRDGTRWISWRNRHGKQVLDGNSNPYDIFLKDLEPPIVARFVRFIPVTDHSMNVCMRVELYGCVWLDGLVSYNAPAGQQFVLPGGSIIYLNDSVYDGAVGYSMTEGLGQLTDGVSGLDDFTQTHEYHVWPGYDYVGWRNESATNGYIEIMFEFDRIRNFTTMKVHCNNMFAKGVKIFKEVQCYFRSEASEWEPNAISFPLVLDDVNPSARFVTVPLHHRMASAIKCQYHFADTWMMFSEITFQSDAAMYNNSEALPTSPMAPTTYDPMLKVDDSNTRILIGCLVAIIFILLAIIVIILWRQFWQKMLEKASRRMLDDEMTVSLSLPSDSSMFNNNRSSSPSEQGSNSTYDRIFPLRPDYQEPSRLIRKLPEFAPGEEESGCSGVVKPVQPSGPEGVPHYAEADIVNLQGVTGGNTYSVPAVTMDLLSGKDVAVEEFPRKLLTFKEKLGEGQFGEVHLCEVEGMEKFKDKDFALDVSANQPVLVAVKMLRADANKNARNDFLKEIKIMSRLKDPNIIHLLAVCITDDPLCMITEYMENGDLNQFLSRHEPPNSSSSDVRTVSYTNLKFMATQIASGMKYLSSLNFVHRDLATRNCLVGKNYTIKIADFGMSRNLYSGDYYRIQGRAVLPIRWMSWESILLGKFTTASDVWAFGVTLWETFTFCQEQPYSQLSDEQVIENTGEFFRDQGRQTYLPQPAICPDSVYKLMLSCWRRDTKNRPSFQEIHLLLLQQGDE
# [7] = kinase TNK1, 1 µmol/L single concentration, ref DOI: 10.1371/journal.pone.0092146
# [8] = kinase CK1δ, 1 µmol/L single concentration, ref DOI: 10.1371/journal.pone.0092146
# [9] = kinase TNIK, 1 µmol/L single concentration, ref DOI: 10.1371/journal.pone.0092146
# [10] = kinase TSSK1, 1 µmol/L single concentration, ref DOI: 10.1371/journal.pone.0092146
# [11] = kinase SGK3, 1 µmol/L single concentration, ref DOI: 10.1371/journal.pone.0092146
# [12] = kinase DDR2, 1 µmol/L single concentration, ref DOI: 10.1371/journal.pone.0092146
# [13] = kinase TNK1, 1 µmol/L single concentration, ref DOI: 10.1158/1535-7163.MCT-18-0877
# [14] = kinase CK1δ, 1 µmol/L single concentration, ref DOI: 10.1158/1535-7163.MCT-18-0877
# [15] = kinase TNIK, 1 µmol/L single concentration, ref DOI: 10.1158/1535-7163.MCT-18-0877
# [16] = kinase TSSK1, 1 µmol/L single concentration, ref DOI: 10.1158/1535-7163.MCT-18-0877
# [17] = kinase SGK3, 1 µmol/L single concentration, ref DOI: 10.1158/1535-7163.MCT-18-0877
# [18] = kinase DDR2, 1 µmol/L single concentration, ref DOI: 10.1158/1535-7163.MCT-18-0877
smiles,measurement,setting,value
CCCS(=O)(=O)Nc1ccc(F)c(C(=O)c2c[nH]c3ncc(-c4ccc(Cl)cc4)cc23)c1F [vemurafenib],"%-inhibition at 1 µmol/L, TNK1",[1]; [7],13%
same,"%-inhibition at 1 µmol/L, CK1δ",[2]; [8],-3%
same,"%-inhibition at 1 µmol/L, TNIK",[3]; [9],33%
same,"%-inhibition at 1 µmol/L, TSSK1",[4]; [10],-4%
same,"%-inhibition at 1 µmol/L, SGK3",[5]; [11],-2.38%
same,"%-inhibition at 1 µmol/L, DDR2",[6]; [12],69%
CC(=O)Nc1cccc(-n2c(=O)n(C3CC3)c(=O)c3c(Nc4ccc(I)cc4F)n(C)c(=O)c(C)c32)c1 [trametinib],"%-inhibition at 1 µmol/L, TNK1",[1]; [7],-2.58%
same,"%-inhibition at 1 µmol/L, CK1δ",[2]; [8],0.365%
same,"%-inhibition at 1 µmol/L, TNIK",[3]; [9],3%
same,"%-inhibition at 1 µmol/L, TSSK1",[4]; [10],-5%
same,"%-inhibition at 1 µmol/L, SGK3",[5]; [11],0.769%
same,"%-inhibition at 1 µmol/L, DDR2",[6]; [12],0.612%
CCc1cc2c(cc1N1CCC(N3CCOCC3)CC1)C(C)(C)c1[nH]c3cc(C#N)ccc3c1C2=O [alectinib],"%-inhibition at 1 µmol/L, TNK1",[1]; [13],11%
same,"%-inhibition at 1 µmol/L, CK1δ",[2]; [14],-5.53%
same,"%-inhibition at 1 µmol/L, TNIK",[3]; [15],31%
same,"%-inhibition at 1 µmol/L, TSSK1",[4]; [16],22%
same,"%-inhibition at 1 µmol/L, SGK3",[5]; [17],1.51%
same,"%-inhibition at 1 µmol/L, DDR2",[6]; [18],8%
CC(C)(C)c1nc(-c2cccc(NS(=O)(=O)c3c(F)cccc3F)c2F)c(-c2ccnc(N)n2)s1 [dabrafenib],"%-inhibition at 1 µmol/L, TNK1",[1]; [7],100%
same,"%-inhibition at 1 µmol/L, CK1δ",[2]; [8],8.51%
same,"%-inhibition at 1 µmol/L, TNIK",[3]; [9],15%
same,"%-inhibition at 1 µmol/L, TSSK1",[4]; [10],8%
same,"%-inhibition at 1 µmol/L, SGK3",[5]; [11],0.0854%
same,"%-inhibition at 1 µmol/L, DDR2",[6]; [12],100%
CC#CC(=O)N1CCC[C@H]1c1nc(-c2ccc(C(=O)Nc3ccccn3)cc2)c2c(N)nccn12 [acalabrutinib],"%-inhibition at 1 µmol/L, TNK1",[1]; [13],-1.8%
same,"%-inhibition at 1 µmol/L, CK1δ",[2]; [14],2.76%
same,"%-inhibition at 1 µmol/L, TNIK",[3]; [15],-0.812%
same,"%-inhibition at 1 µmol/L, TSSK1",[4]; [16],-7%
same,"%-inhibition at 1 µmol/L, SGK3",[5]; [17],-12%
same,"%-inhibition at 1 µmol/L, DDR2",[6]; [18],6%
O=C(c1ccc(F)c(F)c1Nc1ccc(I)cc1F)N1CC(O)([C@@H]2CCCCN2)C1 [cobimetinib],"%-inhibition at 1 µmol/L, TNK1",[1]; [13],4.29%
same,"%-inhibition at 1 µmol/L, CK1δ",[2]; [14],-2.63%
same,"%-inhibition at 1 µmol/L, TNIK",[3]; [15],1.06%
same,"%-inhibition at 1 µmol/L, TSSK1",[4]; [16],7%
same,"%-inhibition at 1 µmol/L, SGK3",[5]; [17],-4%
same,"%-inhibition at 1 µmol/L, DDR2",[6]; [18],0.567%
C=CC(=O)Nc1cc(Nc2nccc(-c3cn(C)c4ccccc34)n2)c(OC)cc1N(C)CCN(C)C [osimertinib],"%-inhibition at 1 µmol/L, TNK1",[1]; [13],100%
same,"%-inhibition at 1 µmol/L, CK1δ",[2]; [14],7.49%
same,"%-inhibition at 1 µmol/L, TNIK",[3]; [15],84%
same,"%-inhibition at 1 µmol/L, TSSK1",[4]; [16],76%
same,"%-inhibition at 1 µmol/L, SGK3",[5]; [17],3.6%
same,"%-inhibition at 1 µmol/L, DDR2",[6]; [18],25%
Cc1cc(Nc2ncc(Cl)c(Nc3ccccc3S(=O)(=O)C(C)C)n2)c(OC(C)C)cc1C1CCNCC1 [ceritinib],"%-inhibition at 1 µmol/L, TNK1",[1]; [13],101%
same,"%-inhibition at 1 µmol/L, CK1δ",[2]; [14],-6%
same,"%-inhibition at 1 µmol/L, TNIK",[3]; [15],25%
same,"%-inhibition at 1 µmol/L, TSSK1",[4]; [16],101%
same,"%-inhibition at 1 µmol/L, SGK3",[5]; [17],-0.738%
same,"%-inhibition at 1 µmol/L, DDR2",[6]; [18],12%
CO[C@@H]1[C@H](N(C)C(=O)c2ccccc2)C[C@H]2O[C@]1(C)n1c3ccccc3c3c4c(c5c6ccccc6n2c5c31)C(=O)NC4 [midostaurin],"%-inhibition at 1 µmol/L, TNK1",[1]; [13],101%
same,"%-inhibition at 1 µmol/L, CK1δ",[2],-2%
same,"%-inhibition at 1 µmol/L, TNIK",[3]; [15],94%
same,"%-inhibition at 1 µmol/L, TSSK1",[4]; [16],95%
same,"%-inhibition at 1 µmol/L, SGK3",[5]; [17],16%
same,"%-inhibition at 1 µmol/L, DDR2",[6]; [18],97%
COc1cc(N2CCC(N3CCN(C)CC3)CC2)ccc1Nc1ncc(Cl)c(Nc2ccccc2P(C)(C)=O)n1 [brigatinib],"%-inhibition at 1 µmol/L, TNK1",[1],101%
same,"%-inhibition at 1 µmol/L, CK1δ",[2],-3.62%
same,"%-inhibition at 1 µmol/L, TNIK",[3],19%
same,"%-inhibition at 1 µmol/L, TSSK1",[4],101%
same,"%-inhibition at 1 µmol/L, SGK3",[5],-2.26%
same,"%-inhibition at 1 µmol/L, DDR2",[6],60%
C=CC(=O)N1CCC[C@@H](n2nc(-c3ccc(Oc4ccccc4)cc3)c3c(N)ncnc32)C1 [ibrutinib],"%-inhibition at 1 µmol/L, TNK1",[1]; [13],6%
same,"%-inhibition at 1 µmol/L, CK1δ",[2]; [14],7.46%
same,"%-inhibition at 1 µmol/L, TNIK",[3]; [15],-1.62%
same,"%-inhibition at 1 µmol/L, TSSK1",[4]; [16],9%
same,"%-inhibition at 1 µmol/L, SGK3",[5]; [17],0.579%
same,"%-inhibition at 1 µmol/L, DDR2",[6]; [18],17%
C[C@@H](Oc1cc(-c2cnn(C3CCNCC3)c2)cnc1N)c1c(Cl)ccc(F)c1Cl [crizotinib],"%-inhibition at 1 µmol/L, TNK1",[1]; [7],41%
same,"%-inhibition at 1 µmol/L, CK1δ",[2]; [8],9%
same,"%-inhibition at 1 µmol/L, TNIK",[3],11%
same,"%-inhibition at 1 µmol/L, TSSK1",[4]; [10],21%
same,"%-inhibition at 1 µmol/L, SGK3",[5]; [11],-3%
same,"%-inhibition at 1 µmol/L, DDR2",[6]; [12],88%
